The values that follow are results of earlier work, collected in patent publication US12565477B2, “Preparation method for chlorinated compound” (JIANGSU KANION PHARMACEUTICAL CO., LTD., priority 2020, dated 2026).

Entries after “also recorded” stand apart in the source; their conditions may differ. Like-named read-outs stand apart in the source and are kept apart here.

The conditions of series [1]: Hepatocyte, Dog, in vitro.
For series [2] the following is noted: human; for Percentage of administered dose: 0-144 h, after Lesinurad; for Metabolites found in humans after Lesinurad administration (in words): clinical data.
For series [3] the following is noted: Hepatocyte, Rat, in vitro.
For series [4] the following is noted: Liver microsome, Monkey, in vitro. In general terms: Microsomes from liver hold many membrane-bound enzymes, among them those of drug oxidation.
The conditions of series [5]: Liver microsome, Human, in vitro.
For series [6] the following is noted: Hepatocyte, Human, in vitro.
A further series addresses T1, URAT1 (Homo sapiens, UniProt Q96S37).
T1 construct: URAT1 is an important kidney anion transporter located on the brush border membrane of epithelial cells of renal tubules; host or cells: kidney of treated patients (endogenous)
T1 sequence (Q96S37 1-553): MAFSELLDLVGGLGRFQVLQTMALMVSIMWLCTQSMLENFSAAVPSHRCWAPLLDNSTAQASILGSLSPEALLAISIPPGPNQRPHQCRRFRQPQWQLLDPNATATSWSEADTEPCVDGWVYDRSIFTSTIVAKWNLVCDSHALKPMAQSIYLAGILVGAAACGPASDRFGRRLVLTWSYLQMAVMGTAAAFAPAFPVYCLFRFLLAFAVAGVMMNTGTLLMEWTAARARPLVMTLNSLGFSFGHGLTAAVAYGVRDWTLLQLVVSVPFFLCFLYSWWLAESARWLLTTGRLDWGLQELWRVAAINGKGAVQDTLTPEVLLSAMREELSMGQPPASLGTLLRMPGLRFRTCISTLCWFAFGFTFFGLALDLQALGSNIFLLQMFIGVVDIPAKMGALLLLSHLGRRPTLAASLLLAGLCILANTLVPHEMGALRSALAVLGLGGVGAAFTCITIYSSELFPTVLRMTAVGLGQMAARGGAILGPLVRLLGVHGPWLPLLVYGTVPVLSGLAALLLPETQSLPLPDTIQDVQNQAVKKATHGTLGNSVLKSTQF

For series [7] the following is noted: Liver microsome, Dog, in vitro.
The conditions of series [8]: Liver microsome, Rat, in vitro.
The conditions of series [9]: Hepatocyte, Monkey, in vitro.

On to `O=C(O)CSc1nnc(Br)n1-c1ccc(C2CC2)c2c1C=CC(O)C2O` (stereo not drawn) [Compound M4], for which the “Share of M3, M4 and Lesinurad detected (Total 100)” value in series [1] and in series [3] was “not detected” each time. For the same compound, the “Percentage of administered dose” value was 5.0% in series [2] (Feces) and 15.7% in [2] (Urine). In addition, in series [2], the “Metabolites found in humans after Lesinurad administration (in words)” value is on record as “specifically detected in human metabolites; also recorded: most predominant metabolites”.
For `O=C(O)CSc1nnc(Br)n1-c1ccc(C2(O)CC2)c2ccccc12` [Compound M3], the “Share of M3, M4 and Lesinurad detected (Total 100)” value in [1] is “not detected”; in series [4] it was 7.9%; in series [3], “not detected”. Besides, the “Percentage of administered dose” value in series [2] (Feces) is given as 0.3%; in [2] (Urine) it was 12.0%. In [2], the “Metabolites found in humans after Lesinurad administration (in words)” value is “most predominant metabolites”.
`O=C(O)CSc1nncn1-c1ccc(C2CC2)c2ccccc12` [Compound M2]: the “Percentage of administered dose” value in series [2] (Feces) is recorded as 4.8%; in series [2] (Urine), 0.3%.
`O=C(O)CSc1nnc(Br)n1-c1ccc(C2CC2)c2ccccc12` [Lesinurad]: the Share of M3, M4 and Lesinurad detected (Total 100) in series [1] is 100%; in series [5], 100%; in [6], 92.1%; in [7] it was 100%; in series [4], 92.1%; in series [3] it was 100%. Further, the results for the Share of M3, M4 and Lesinurad detected (Total 100) in series [8] and in series [9] were 100% and 98.1%, respectively. The “Additional effect of combined medication versus xanthine oxidase inhibitor alone” value at URAT1 (Lesinurad 200 mg/day with XOI) was “not very significant”. In addition, the “Toxic side effects (kidney-related adverse events, especially kidney stone)” value at URAT1 (Lesinurad 400 mg/day) is “significantly increased toxic side effects”. In addition, the “Additional effect of combined medication” value on URAT1 (Lesinurad 400 mg/day (high dose) with XOI) is recorded as “higher additional effect”. Further, the “Percentage of administered dose” value in series [2] (Feces) is 1.5%; in series [2] (Urine) it was 31.3%.
`O=C(O)CSc1nncn1-c1ccc(C2(O)CC2)c2ccccc12` [Compound M5]: in series [2] (Feces), the “Percentage of administered dose” value was 3.6%.
